A melting point compilation (Tetko et al.; mined from patent text by program, amines drawn as free bases though some values may be those of a salt)

Structure (SMILES)	melting point [°C]
Cc1cccc(Sc2cncc3sc(C(N)=O)cc23)c1	171 to 173
COc1ccc(C(=C/C=C/C(=O)NC(C)(C)CCCc2cccnc2)c2ccc(OC)cc2)cc1	144 to 145
O=C(Nc1ncc[nH]1)c1cnc2c(C(F)(F)F)cccc2c1O	211
CC(=O)c1c(Cl)nc2n(c1=O)CCS2	135 to 136
COc1ccc(-c2cc(-c3ccc(-c4c(Cc5ccccc5)sc5ccccc45)cc3)ccc2OCC(=O)O)cc1OC	95 to 97
O=C1CN(c2ncc3ncnc(Nc4ccc(F)c(Cl)c4)c3n2)CCN1	244 to 246
CCCNS(=O)(=O)Nc1ncccc1C(=O)OC	208 to 210
CCCCCCCCCCCCCCCCCCNC(=O)OCC(CNS(=O)(=O)CCCCl)NC(=O)NC (stereo not drawn)	87 to 90
CCCCCCCCCCCCCCCCCCN(C)c1ccc([N+](=O)[O-])cc1C(=O)O	108 to 109
CCC(C)(C)OOC(C)(CCC(=O)NNC(=O)C(C#N)=C(c1ccccc1)c1ccccc1)OOC(C)(C)CC	145 to 148
CCS(=O)C1CCC2C3CCC4=CC(=O)C=CC4(C)C3(F)C(O)CC21C (stereo not drawn)	247 to 250
NC(=O)C1(c2ccccc2)CCN(Cc2ccccc2)CC1	117 to 118
CNC(=C[N+](=O)[O-])NCCSCc1csc(CN2CCCC2)n1	119 to 120
CC(c1oc2ccccc2c(=O)c1-c1ccccc1)n1nc(C#CC(C)(C)O)c2c(N)ncnc21 (stereo not drawn)	109 to 113
Cc1nn(C(=O)NC2CCCCC2)c(=O)n1NC(C)C	92
C=C(C)c1cc(Br)c(Oc2nc(C)nc(N3CCOCC3)n2)c(OC)c1	63 to 67
COCc1nc2c(C(F)(F)F)cccc2c(O)c1C(=O)Nc1nccs1	260
CCc1cc(C2(c3ccc(F)c(-c4cncc(F)c4)c3)N=C(N)N(C)C2=O)cc(CC)n1 (stereo not drawn)	155 to 157
Cn1c(C(F)(F)F)cc(=O)n(-c2c(F)cc(Cl)c3c2OCCC3)c1=O	141 to 145
O=C(Nc1cccc(C(F)(F)F)c1)Nc1ccc2c(c1)OC(F)(F)O2	187 to 191
CCOC(=O)Cc1ccc(NC(=O)C(C)C)cc1	92.5 to 93.5
COc1ccc(Nc2c([N+](=O)[O-])ccc(Cl)c2C(=O)O)cc1	205 to 213
O=C1NCc2cccn2-c2ccsc21	191

Structure (SMILES)	melting point [°C]
CSc1noc(-c2ccc(OCCOc3ccc(Br)cc3)cc2)c1C#N	156 to 157
COc1ccc2c(c1)cc(CO)n2C	158
CONC(=O)Nc1ccc(-c2sc3c(c2CCl)c(=O)n(-c2ccc4c(c2)OCCO4)c(=O)n3Cc2c(F)cccc2F)cc1	204 to 209
CC(C1CCC(Oc2ccc(F)cc2)C1)N(O)C(N)=O (stereo not drawn)	111 to 112
CCCCN(CCCC)c1ccc(C=CC2=C(C#N)C(=C(C#N)C#N)OC2(C)C)c(OC)c1	222 to 226
CCCc1c(OCCCOc2ccc(C(=O)O)cc2Cl)ccc(C(C)=O)c1O	171 to 172
CC(C)(C)C(=NO)Nc1ccc(Cl)nn1	128 to 130
C=C(C)c1ccc(-c2ccc(OC(C)=O)cc2)cc1	131 to 132
O=P(Oc1ccc2ccccc2c1)(Oc1ccc2ccccc2c1)Oc1ccc2ccccc2c1	110 to 111
Cc1cn(-c2cccc(C3=Nc4ccc(-c5ccc(F)cc5)cc4NC(=O)C3)c2)cn1	215
O=C(O)c1cc(C(=O)O)c2c(Cl)cc(Cl)cc2n1	246
Cc1nc2ncnn2c2c1CCN2C1CCCCCC1	197 to 198
CC(=O)Nc1ccc(C#Cc2ccc(N3CC4CCC(C3)N4C)nn2)cc1	292
O=c1ccc2cc(C(O)(C(F)(F)F)C(F)(F)F)cc3c2n1CCC3	295 to 296
COC(=O)c1ccc(C(=O)NC(C)C)cc1S(=O)(=O)NC(C)(C)C	159 to 160
CO/C(=C\C=C\c1cc2ccccc2o1)C(=O)O	206
CCCc1ccc(OCC(C)O)c2c(=O)cc(C(=O)O)oc12 (stereo not drawn)	134 to 136
CCOC(=O)c1cc2cc(OC(F)(F)F)cc(N)c2[nH]1	190 to 191
CC(C)n1nc(-c2cnc(N)nc2-c2ccc(F)c(F)c2)ccc1=O	208
N#CN=C(NCCSCc1nccs1)NCCSCc1nccs1	66 to 68
CC(C)(C)NC(=O)c1ncc[nH]1	134
O=C(c1ccccc1)c1cc([N+](=O)[O-])ccc1-n1nc(CN2C(=O)c3ccccc3C2=O)cc1CN1C(=O)c2ccccc2C1=O	220 to 224

Next, values leading:

melting point [°C]	Structure (SMILES)
80 to 82	O=C(C=Cc1cccnc1)NCCCCC1CCN(C(=O)c2cccc3c2-c2ccccc2C3=O)CC1
80	O=C(NC1CC1c1ccccc1)C1Cc2ccccc2N1S(=O)(=O)c1ccc(-c2ccc(F)cc2)cc1 (stereo not drawn)
291 to 293	Cc1cccc(Nc2nc(-c3cc(-c4ccccc4)no3)cs2)n1
159 to 160	O=C(OCN1C(=O)c2ccccc2C1=O)c1ccccc1[N+](=O)[O-]
241 to 242	O=C(Nc1cccnc1)N1CCc2cc(-c3ccccc3)ccc21
128	CNCc1cn(S(=O)(=O)c2ccccc2)c(-c2cccnc2F)c1F
137 to 138	COc1cccc(-c2c(Cl)c(CCl)nc3sc4c(c23)CCN(Cc2ccccc2)C4)c1OC
234 to 237	CC1CN(c2cc3c(cc2F)C(=O)c2nc4ccccc4c(=O)n2-3)CCN1C(=O)OC(C)(C)C (stereo not drawn)
160 to 161	Cc1cc(C2=NNC(=O)CC2)ccc1CCCCNC(=O)c1cccnc1
122 to 124	O=C1CCCN1N=c1sc2ccccc2s1
193 to 194	Cc1nc2c(O)c(CCC(=O)c3ccccc3OCc3ccccc3)c(C(=O)N(C)C)cc2n1C
166 to 168	CC1(C)CC(N2CCN(c3ccccc3)C2=O)c2cc(C#N)ccc2O1 (stereo not drawn)
170	CN(c1ccccc1-c1ccc2cnc(Nc3ccc(C4CCN(CC(N)=O)CC4)cc3)nn12)S(C)(=O)=O
76 to 77	O=C(c1ccccc1)c1ccc[nH]1
165 to 167	CN(C)c1ccc2c(c1)c(=O)[nH]c(=O)n2CCCCN1CCC(OC(c2ccccc2)c2ccccc2)CC1
126	N#Cc1cc([N+](=O)[O-])ccc1Oc1ccccc1
161 to 163	Oc1ccc2c(c1)CC(NCc1ccccc1)CC2 (stereo not drawn)
61 to 63	CCCNC(=O)C1(CCCCN2CCC(N3Cc4ccccc4C3=O)CC2)CCc2ccccc21 (stereo not drawn)
231 to 233	O=[N+]([O-])c1ccc(CN2CCCCc3ncccc32)cc1
88 to 91	O=C1NC(=O)C(Cc2ccc(OCc3nc4cccnc4n3-c3ccccc3)cc2)S1 (stereo not drawn)
107 to 109	O=S(=O)(Nc1cccc(CCOCc2nc(-c3ccc(C(F)(F)F)cc3)sc2Cl)c1)C(F)(F)F
85	CCOC(=O)c1ncsc1-c1cccc(OCc2cccc(C#N)c2)c1
148 to 149	CCOC(=O)CC1(N2C(=O)c3ccccc3C2=O)C(=O)N(c2ccccc2)c2ccccc21 (stereo not drawn)
